Measurements from PMC7529893, “Structural basis for substrate recognition and chemical inhibition of oncogenic MAGE ubiquitin ligases” (Nature Communications, 2020).

Molecular target: T1, MAGE-A11:PCF11 interaction (GST-MAGE-A11 and FAM-PCF11_4) (Homo sapiens, UniProt P43364)
T1 construct: GST-MAGE-A11 MHD (human MAGE-A11 MHD amino acid 218-429); made in house; host or cells: E. coli BL21(DE3)
T1 sequence (P43364 218-429): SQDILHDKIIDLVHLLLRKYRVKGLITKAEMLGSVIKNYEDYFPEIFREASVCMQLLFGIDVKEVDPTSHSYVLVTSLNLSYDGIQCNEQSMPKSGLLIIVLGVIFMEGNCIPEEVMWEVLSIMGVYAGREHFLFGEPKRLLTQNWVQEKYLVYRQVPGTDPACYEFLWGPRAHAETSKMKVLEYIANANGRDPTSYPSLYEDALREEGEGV
Experiment: TR-FRET primary / single point screen at 15 µM
Type: binding
Summary of the method: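 Single-point screen at 15 µM final compound in 50 mM Tris pH 7.5, 20 mM MgCl2, 0.1 mg/ml BSA, 1 mM DTT, with 200 nM FAM-PCF11_4, 5 nM Tb-anti-GST and 5 nM GST-MAGE-A11. After 90 min at room temperature, the 520/490 nm TR-FRET ratio (340 nm excitation) gave %Inhibition against no-MAGE-A11 and DMSO controls.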

[1] = single point TR-FRET screening of quinoline compounds against MAGE-A11:PCF11, 15 µM
[2] = single point TR-FRET screening of 797 quinoline compounds against MAGE-A11:PCF11

Structure (SMILES) | percent inhibition (TR-FRET) [1] | percent inhibition (TR-FRET) [2]
Cc1ccc(CNCCCNc2ccnc3cc(Cl)ccc23)o1 [SJ000311326] | 10.2048 | 
Clc1ccc2c(NCCCN(Cc3ccccc3)Cc3ccco3)ccnc2c1 [SJ000312668] | 0.5217 | 
Cc1ccc(CN(CCCNc2ccnc3cc(Cl)ccc23)Cc2ccccc2)o1 [SJ000312669] | 2.84 | 
Clc1ccc2c(NCCCN(Cc3ccccc3)Cc3ccc(Br)o3)ccnc2c1 [SJ000312671] | -1.797 | 
Clc1ccc2c(NCCCN(Cc3ccccc3)Cc3cccs3)ccnc2c1 [SJ000312672] | 4.744 | 
Cc1ccc(CN(CCCNc2ccnc3cc(Cl)ccc23)Cc2ccccc2)s1 [SJ000312673] | 4.629 | 
Clc1ccc2c(NCCCN(Cc3ccccc3)Cc3ccsc3)ccnc2c1 [SJ000312675] | 9.598 | 
Clc1ccc2c(NCCCN(Cc3ccccc3)Cc3nccs3)ccnc2c1 [SJ000312676] | -4.148 | 
Clc1ccc2c(NCCCN(Cc3ccccc3)Cc3ccccn3)ccnc2c1 [SJ000312678] | -3.851 | 
Clc1ccc2c(NCCCN(Cc3ccccc3)Cc3ccncc3)ccnc2c1 [SJ000312679] | -5.573 | 
Clc1ccc2c(NCCCCN(Cc3ccccc3)Cc3ccco3)ccnc2c1 [SJ000312681] |  | 12.0487
Cc1ccc(CN(CCCCNc2ccnc3cc(Cl)ccc23)Cc2ccccc2)o1 [SJ000312682] |  | 2.013
Clc1ccc2c(NCCCCN(Cc3ccccc3)Cc3ccc(Br)o3)ccnc2c1 [SJ000312684] |  | 14.9636
Clc1ccc2c(NCCCCN(Cc3ccccc3)Cc3ccoc3)ccnc2c1 [SJ000312685] |  | 14.8973
Clc1ccc2c(NCCCCN(Cc3ccccc3)Cc3cccs3)ccnc2c1 [SJ000312686] |  | 25.0481
Cc1ccc(CN(CCCCNc2ccnc3cc(Cl)ccc23)Cc2ccccc2)s1 [SJ000312687] |  | 20.7072
Clc1ccc2c(NCCCCN(Cc3ccccc3)Cc3ccc(Br)s3)ccnc2c1 [SJ000312688] |  | 22.0375
Clc1ccc2c(NCCCCN(Cc3ccccc3)Cc3ccsc3)ccnc2c1 [SJ000312689] |  | 16.2962
Clc1ccc2c(NCCCCN(Cc3ccccc3)Cc3ccccn3)ccnc2c1 [SJ000312690] |  | 9.5313
Clc1ccc2c(NCCCCN(Cc3ccccc3)Cc3ccc[nH]3)ccnc2c1 [SJ000312692] |  | 28.2792
COc1cccc(CN(CCCCNc2ccnc3cc(Cl)ccc23)Cc2ccccc2)c1O [SJ000312694] |  | 7.676
COc1ccc(O)c(CN(CCCCNc2ccnc3cc(Cl)ccc23)Cc2ccccc2)c1 [SJ000312696] |  | 6.634
Oc1ccccc1CN(CCCCNc1ccnc2cc(Cl)ccc12)Cc1ccccc1 [SJ000312697] |  | 24.8344
COc1ccccc1N1CCN(c2c(S(=O)(=O)c3ccccc3)cnc3ccc(C)cc23)CC1 [SJ000315081] |  | -19.5512
Cc1ccc2ncc(S(=O)(=O)c3ccccc3)c(N3CCN(c4ccccc4F)CC3)c2c1 [SJ000315092] |  | -33.4837

Structure (SMILES) | percent inhibition (TR-FRET) [1] | percent inhibition (TR-FRET) [2]
O=S(=O)(c1ccccc1)c1cnc2ccc(F)cc2c1N1CCN(c2ccccc2F)CC1 [SJ000315166] |  | -99.0552
O=S(=O)(c1ccccc1)c1cnc2ccc(Cl)cc2c1N1CCN(c2ccccc2F)CC1 [SJ000315176] |  | -5.441
COc1ccc2ncc(S(=O)(=O)c3ccccc3)c(N3CCN(c4ccccc4F)CC3)c2c1 [SJ000315263] |  | -252.464
CCCCN(CCCC)CC(=O)Nc1c2c(nc3ccccc13)N(C)CC2 [SJ000331523] |  | 2.503
CCN(CC)CC(=O)Nc1c2c(nc3ccccc13)N(C)CC2 [SJ000331537] |  | 11.7837
CN(C)CC(=O)Nc1c2c(nc3ccccc13)N(C)CC2 [SJ000332030] |  | 17.0397
CCCN(CCCNc1ccnc2cc(Cl)ccc12)Cc1ccccc1 [SJ000357431] | 19.1371 | 
CCCN(CCCNc1ccnc2cc(Cl)ccc12)Cc1ccc(C)s1 [SJ000357433] | 16.5062 | 
CCCN(CCCNc1ccnc2cc(Cl)ccc12)Cc1ccc(C)o1 [SJ000357437] | 20.147 | 
CCCN(CCCNc1ccnc2cc(Cl)ccc12)Cc1sccc1C [SJ000357439] | 19.7269 | 
Cc1ccsc1CN(CCCNc1ccnc2cc(Cl)ccc12)Cc1ccccc1 [SJ000357440] | 10.905 | 
CCCN(CCCNc1ccnc2cc(Cl)ccc12)Cc1ccoc1 [SJ000357442] | 6.2139 | 
CCCN(CCCNc1ccnc2cc(Cl)ccc12)Cc1ccc[nH]1 [SJ000357445] | 10.3448 | 
CCCN(CCCNc1ccnc2cc(Cl)ccc12)Cc1cccnc1 [SJ000357446] | 7.809 | 
CCCN(CCCNc1ccnc2cc(Cl)ccc12)Cc1ccncc1 [SJ000357449] | 9.295 | 
CCCN(CCCNc1ccnc2cc(Cl)ccc12)Cc1nccs1 [SJ000357454] | 11.9552 | 
CCCN(CCCNc1ccnc2cc(Cl)ccc12)Cc1ccco1 [SJ000357458] | 3.483 | 
Clc1ccc2c(NCCCN(Cc3ccccc3)Cc3ccc(Br)s3)ccnc2c1 [SJ000357461] | 27.4987 | 
COc1ccc(O)c(CN(CCCNc2ccnc3cc(Cl)ccc23)Cc2ccccc2)c1 [SJ000357463] | 14.1686 | 
COc1cccc(CN(CCCNc2ccnc3cc(Cl)ccc23)Cc2ccccc2)c1O [SJ000357465] | 13.1749 | 
CC(C)CN(CCCNc1ccnc2cc(Cl)ccc12)Cc1ccccc1 [SJ000357468] | 18.7467 | 
CC(C)CN(CCCCNc1ccnc2cc(Cl)ccc12)Cc1ccccc1 [SJ000357470] |  | 25.4682
Clc1ccc2c(NC3CCN(CC4CC4)CC3)ccnc2c1 [SJ000357481] |  | 3.973
Clc1ccc2c(NCCCN(Cc3ccccc3)CC3CC3)ccnc2c1 [SJ000357483] | 21.0583 | 
Clc1ccc2c(NCCCCN(Cc3ccccc3)CC3CC3)ccnc2c1 [SJ000357485] |  | 18.3422

Structure (SMILES) | percent inhibition (TR-FRET) [1] | percent inhibition (TR-FRET) [2]
COc1ccc(F)cc1CN1CCC(Nc2ccnc3cc(Cl)ccc23)CC1 [SJ000357493] |  | 6.1527
CCCN(CCCNc1ccnc2cc(Cl)ccc12)Cc1cc(F)ccc1OC [SJ000357494] | 17.0835 | 
COc1ccc(F)cc1CN(CCCNc1ccnc2cc(Cl)ccc12)Cc1ccccc1 [SJ000357495] | 6.683 | 
COc1ccc(F)cc1CN(CCCCNc1ccnc2cc(Cl)ccc12)Cc1ccccc1 [SJ000357496] |  | 20.7772
COc1cccc(F)c1CN1CCC(Nc2ccnc3cc(Cl)ccc23)CC1 [SJ000357498] |  | 10.503
CCCN(CCCNc1ccnc2cc(Cl)ccc12)Cc1c(F)cccc1OC [SJ000357499] | 19.4021 | 
COc1cccc(F)c1CN(CCCNc1ccnc2cc(Cl)ccc12)Cc1ccccc1 [SJ000357500] | -2.857 | 
COc1cccc(F)c1CN(CCCCNc1ccnc2cc(Cl)ccc12)Cc1ccccc1 [SJ000357501] |  | 5.094
Oc1c(F)cc(F)cc1CN(CCCNc1ccnc2cc(Cl)ccc12)Cc1ccccc1 [SJ000357504] | 27.6387 | 
Oc1c(F)cc(F)cc1CN(CCCCNc1ccnc2cc(Cl)ccc12)Cc1ccccc1 [SJ000357506] |  | 30.6494
Clc1ccc2c(NC3CCN(Cc4ccc(Br)o4)CC3)ccnc2c1 [SJ000357512] |  | -4.381
Clc1ccc2c(NC3CCN(Cc4ccccc4)CC3)ccnc2c1 [SJ000357524] |  | 6.554
COc1cccc(CN2CCC(Nc3ccnc4cc(Cl)ccc34)CC2)c1O [SJ000357525] |  | 9.995
COc1ccc(O)c(CN2CCC(Nc3ccnc4cc(Cl)ccc34)CC2)c1 [SJ000357527] |  | 7.779
Oc1ccccc1CN1CCC(Nc2ccnc3cc(Cl)ccc23)CC1 [SJ000357529] |  | 22.1466
CC(C)(C)CCN(CCCCNc1ccnc2cc(Cl)ccc12)Cc1ccccc1 [SJ000357537] |  | 34.5391
CCCCN(CCCCNc1ccnc2cc(Cl)ccc12)Cc1ccccc1 [SJ000357538] |  | 27.6387
Clc1ccc2c(NCCCCN(CCOCc3ccccc3)Cc3ccccc3)ccnc2c1 [SJ000357543] |  | -15.9162
CCCN(CCCNc1ccnc2cc(Cl)ccc12)CC(C)C [SJ000357568] | 11.4525 | 
CCCN(CCCNc1ccnc2cc(Cl)ccc12)CCC(C)(C)C [SJ000357570] | 12.1149 | 
CCCCN(CCC)CCCNc1ccnc2cc(Cl)ccc12 [SJ000357571] | 12.7774 | 
CCCN(CCCNc1ccnc2cc(Cl)ccc12)CCC(C)c1ccccc1 (centres unmarked) [SJ000357573] | 24.9781 | 
CCCN(CCCNc1ccnc2cc(Cl)ccc12)CCc1ccccc1 [SJ000357574] | 4.8836 | 
CCCN(CCCNc1ccnc2cc(Cl)ccc12)CCCSC [SJ000357576] | 7.824 | 
